Article PMC8329197, “Compounds targeting OSBPL7 increase ABCA1-dependent cholesterol efflux preserving kidney function in two models of kidney disease” (Nature Communications, 2021)
Values joined by “and” are separate entries in the source; they are usually repeats but may differ in a detail not shown here. Equal entries are not always repeated.

What was measured:
[1] = system: Adriamycin (ADR)-induced nephropathy in Balb/c mice; test: ADR nephropathy: kidney cortex lipids (cholesterol ester, total cholesterol, triglycerides, Oil-red O); type: in vivo, mouse
Procedure: OCT embedded kidney cortex samples were cryosectioned at 4 μm thickness and stained with Oil-Red O-isopropanol solution (Electron Microscopy Science, PA) diluted 6:4 in water, and then counterstained with Hematoxylin Harris Hg Free (VWR, PA). Sections were then evaluated using a light microscope (Olympus BX 41, Tokyo, Japan).
Snap frozen kidney cortex samples were homogenized in 2 mM potassium phosphate buffer, pH 7, (10 µl buffer/mg tissue) using a glass douncer on ice. 100 μl of the homogenate were mixed thoroughly with 1 ml of hexane:isopropanol (3:2;v:v) per volume of tissue homogenate. The aqueous (pellet) and organic (supernatant) phases were separated by centrifugation at 12,000 × g for 5 min. Pellets (aqueous phase) were dried, reconstituted in 8 M urea, 0.1% SDS, 0.1 M NaOH, and total proteins were quantified by the BCA method (Thermofisher). The organic phase was dried by exposure to nitrogen. Lipids were then reconstituted in 100 µl isopropanol:NP-40 (9:1;v:v). Triglyceride content was assayed using a colorimetric kit according to the manufacturer’s instructions (Cayman Chemical USA). Total cholesterol and CE content were assayed using an enzymatic fluorometric method. For total cholesterol measurement, extracts were diluted 1:100 in assay buffer (100 mM potassium phosphate, 50 mM NaCl, 5 mM cholic acid, 0.1% Triton […], pH 7.4) containing cholesterol oxidase (1 U/ml), cholesterol esterase (1 U/ml), horseradish peroxidase (1 U/ml), and Amplex Red (75 µM). The reactions were incubated at 37 °C for 30 min in a black opaque 96-well plate (Greiner) and fluorescence was measured in a microplate reader (Spectramax i3X, Molecular Devices) at 530 nm excitation and 580 emission.
For CE determination, 150 µl of the assay buffer described above, supplemented with bovine liver catalase (45 U/ml) and cholesterol oxidase (1 U/ml), was added to 25 μl of sample and incubated overnight at 37 °C to deplete free cholesterol leaving only cholesterol esters. Then, 75 µl of cholesterol ester detection reagent (1 U/ml cholesterol oxidase, 4 U/ml cholesterol esterase, 24 U/ml horseradish peroxidase, 300 µM Amplex Red) was added. The reaction was incubated at 37 °C for 30 min and the fluorescence signal was measured as described above. Internal standards included samples containing 1 mM of cholesterol and 5 μM of cholesterol oleate in order to verify the completeness of the enzymatic decomposition of free cholesterol as well as assay sensitivity and specificity.

[2] = system: Adriamycin (ADR)-induced nephropathy in Balb/c mice; test: Adriamycin-induced nephropathy, main study: albumin/creatinine ratio and body weight
[3] = system: ABCA1 protein; test: Cell fractionation: ABCA1 in plasma membrane and microsomal fractions of podocytes; type: cell-based, human; details: podocytes; Cpd A 5 µM, Cpd G 10 µM
Procedure: Lysates, or cell fractions were incubated in Laemmli buffer at 55 °C for 10 min under reducing conditions. A total of 30 μg of protein from cell lysates or one-third of the volume collected in cell fraction preparations was separated by SDS-PAGE in 4–20% gradient gels (Biorad) and proteins were then transferred to PVDF membranes. After blocking with 5% TBS-milk, membranes were probed with primary antibodies overnight at 4 °C. The following primary antibodies were used: mouse anti-ABCA1 (Abcam; 1:1000), rabbit anti-GAPDH antibody (Millipore; 1:10,000), mouse anti-actin (CP01, Millipore 1:10,000), anti-MEK, anti-ERp72, anti-V5 and anti-Na^+/K^+ ATPase (Cell Signaling; all 1:1000), and rabbit anti-OSBPL7 (Sigma; 1:1000). After washing, membranes were incubated with anti-rabbit or and anti-mouse IgG-HRP antibodies (Promega, 1:10,000). Signals were detected after incubation with Westernbright ECL HRP substrate (Advansta) and luminescence signals were captured with Azure C600 Gel Imaging workstation (Azure Biosystems Inc, USA) or X-ray films.
Differentiated podocytes were treated with compounds Cpd C (1 μM), Cpd A (5 μM), or Cpd G (10 μM) for 18 h, washed and then harvested in ice-cold PBS. Cells were centrifuged at 1000 × g for 5 min, the supernatant was carefully removed, and the pellet resuspended in hypotonic buffer (15 mM KCl, 1.5 mM MgCl2, 10 mM HEPES and 1 mM DTT) supplemented with a protease inhibitor cocktail (Roche). Cells were disrupted with a glass douncer, and sucrose was added to achieve final concentration of 227 mM. Cell lysates were centrifuged at 1000 × g for 30 min at 4 °C. The supernatant was then transferred to a new tube and centrifuged at 10,000 × g for 15 min at 4 °C. The pellet, containing the microsomal fraction was collected and the supernatant was transferred to a new tube and centrifuged at 100,000 × g for 1 h at 4 °C. The pelleted plasma membrane fraction was collected and the supernatant, containing the organelle-free cytosolic fraction, was concentrated in Vivaspin 500 filter columns. Western blot was performed using antibodies for ABCA1 and specific markers for each membrane fraction as described above. Na^+/K^+ ATPase was used to identify the plasma membrane fraction, ERp72 as a marker for the microsomal-enriched fraction, and MEK as the control for the non-membranous cytosolic fraction.

[4] = system: Adriamycin (ADR)-induced nephropathy in Balb/c mice; test: ADR nephropathy: WBC, hemoglobin, hematocrit, ALT, AST; type: in vivo, mouse
[5] = 28 days after ADR, Cpd G 100 mg/Kg
[6] = ADR-induced nephropathy, 28 days treatment, 25th quartile
[7] = ADR-induced nephropathy, 28 days treatment, 75th quartile
[8] = ADR-induced nephropathy, 28 days treatment, group maximum
[9] = ADR-induced nephropathy, 28 days treatment, group median
[10] = ADR-induced nephropathy, 28 days treatment, group minimum
[11] = ADR-induced nephropathy, 28 days treatment, individual mouse values

## O=C(N[C@@H]1CCCC[C@H]1O)c1cnc(OCC(F)(F)F)c(-c2ccc(Cl)c(Cl)c2)c1 [Cpd G]
[1]; ADR model, individual animals
  KIDNEY CORTEX TOTAL CHOLESTEROL: 79.82 nmol Chol./mg protein and 76.54 nmol Chol./mg protein and 118.96 nmol Chol./mg protein and 209.77 nmol Chol./mg protein and 137.06 nmol Chol./mg protein and 201.43 nmol Chol./mg protein and 118.77 nmol Chol./mg protein and 118.29 nmol Chol./mg protein and 88.73 nmol Chol./mg protein and 117.18 nmol Chol./mg protein
  KIDNEY CORTEX TRIGLYCERIDES: 45.04 nmol Triglyceride /mg protein and 65 nmol Triglyceride /mg protein and 36.98 nmol Triglyceride /mg protein and 31.32 nmol Triglyceride /mg protein and 30.95 nmol Triglyceride /mg protein and 56.24 nmol Triglyceride /mg protein and 28.95 nmol Triglyceride /mg protein and 62.65 nmol Triglyceride /mg protein and 57.76 nmol Triglyceride /mg protein
[1]; ADR, day 28 of treatment, paired with ACR of same animal
  Cholesterol ester content in kidneys from individual animals: 0.13 nmol CE/mg and 0.19 nmol CE/mg and 0.14 nmol CE/mg and 0.15 nmol CE/mg and 0.03 nmol CE/mg and 0.01 nmol CE/mg and 0.17 nmol CE/mg
[1]; Cpd G 28 days after ADR
  Cholesterol esters in renal cortex, ADR model: reduced accumulation of cholesterol esters
[1]; mice challenged with ADR, treated for 28 days, group median
  Renal CE content, Median: 0.975 nmol CE/ mg protein
[1]; mice challenged with ADR, treated for 28 days, individual animals
  Renal CE content (cholesterol ester, normalized to total proteins in kidney cortexes): 0.88 nmol CE/ mg protein and 1.16 nmol CE/ mg protein and 1.07 nmol CE/ mg protein and 1.59 nmol CE/ mg protein and 0.87 nmol CE/ mg protein and 0.53 nmol CE/ mg protein and 0.78 nmol CE/ mg protein and 0.58 nmol CE/ mg protein and 1.14 nmol CE/ mg protein and 1.47 nmol CE/ mg protein
[2]; 28 days after ADR
  Effect on weight loss: substantially reduced weight loss
[2]; [5]
  Mice that showed no weight loss: 7 out of 10
  Weight loss of the remaining 3 mice: less than 5%
[2]; 28 days after ADR, Cpd A 30, Cpd G 100, Cpd C 10 mg/Kg, group median
  ACR, median: 0.6 mg albumin/mg creatinine and 0.576 mg albumin/mg creatinine
[2]; animal weight when therapy finished, single animals
  Weight (d28): 20 and 21 and 20.5 and 16 and 19 and 17
[2]; day 28 after ADR, Cpd A 30, Cpd G 100, Cpd C 10 mg/Kg
  Weight Change (as % of weight at day 0), Median: 0%
[2]; day 28 after ADR, Cpd A 30, Cpd G 100, Cpd C 10 mg/Kg, single animals
  Weight Change (as % of weight at day 0): 5% and 2.5% and 0% and -9.1% and -5%
[2]; spot urine 28 days after ADR, oral daily Cpd A 30, Cpd G 100, Cpd C 10 mg/Kg, single animals
  ACR values (mg Albumin / mg Creatinine): 3.053 mg Albumin / mg Creatinine and 3.33 mg Albumin / mg Creatinine and 0.105 mg Albumin / mg Creatinine and 0.292 mg Albumin / mg Creatinine and 4.643 mg Albumin / mg Creatinine and 4.983 mg Albumin / mg Creatinine and 0.09 mg Albumin / mg Creatinine and 0.018 mg Albumin / mg Creatinine and 0.86 mg Albumin / mg Creatinine and 0.271 mg Albumin / mg Creatinine
[2]; vs ADR+V, 28 days, Cpd A 30, Cpd G 100 mg/kg/day
  Times lower ACR: 30 times
[3]
  ABCA1 at the plasma membrane: increased ABCA1 at the plasma membrane
  ABCA1 in microsomal fractions: did not increase ABCA1 in microsomal fractions
[4]; 28 days
  ADR-induced increase of ALT and AST: partially attenuated
[4]; ADR-induced nephropathy
  ALT, Median (IQR): 213 (105-239) U/L
  ALT, Range: 90-317 U/L
  AST, Median (IQR): 213 (156-220) U/L
  AST, Range: 124-401 U/L
  HTC, Median (IQR): 51 (48-52) %
  HTC, Range: 46-57%
  Hgb, Median (IQR): 13 g/dL
  Hgb, Range: 12.2 to 13.7 g/dL
  WBC, Median (IQR): 5.2 (3.4-6.5) x103cells/µL
  WBC, Range: 2.5-6.5 x103cells/µL
[4]; [6]
  HTC, QR(25): 49.25%
  Hgb, QR(25): 12.6 g/dL
  WBC, QR(25): 3.85 x 10^3 cells/ul
[4]; [7]
  HTC, QR(75): 51.75%
  Hgb, QR(75): 13.4 g/dL
  WBC, QR(75): 6.425 x 10^3 cells/ul
[4]; [8]
  HTC, Max: 57%
  Hgb, Max: 13.7 g/dL
  WBC, Max: 9.8 x 10^3 cells/ul
[4]; [9]
  HTC, Median: 51%
  Hgb, Median: 13.1 g/dL
  WBC, Median: 5.45 x 10^3 cells/ul
[4]; [10]
  HTC, Min: 46%
  Hgb, Min: 12.2 g/dL
  WBC, Min: 2.5 x 10^3 cells/ul
[4]; [11]
  Alanine Aminotransferase (ALT): 220 U/dL and 105 U/dL and 213 U/dL and 156 U/dL and 239 U/dL and 317 U/dL and 90 U/dL
  Aspartate Aminotransferase (AST): 217 U/dL and 156 U/dL and 401 U/dL and 213 U/dL and 220 U/dL and 124 U/dL
  Hematocrit HTC: 57% and 51% and 54% and 47% and 46% and 49% and 52% and 50%
  White Blood Cells WBC: 9.8 x 10^3 cells/ul and 5.5 x 10^3 cells/ul and 6.2 x 10^3 cells/ul and 2.5 x 10^3 cells/ul and 5.2 x 10^3 cells/ul and 6.5 x 10^3 cells/ul and 3.4 x 10^3 cells/ul and 5.4 x 10^3 cells/ul and 8.9 x 10^3 cells/ul
